Experimental data: ChEMBL document CHEMBL4507297, “Data for DCP probe PF-04457845” (2021)

Legend:
[1] = target: Dual specificity tyrosine-phosphorylation-regulated kinase 1A (Homo sapiens) (UniProt Q13627); settings: Compound concentration 1000.0 nM
[2] = target: Serine/threonine-protein kinase PknB (Mycobacterium tuberculosis) (UniProt P9WI81); settings: Compound concentration 1000.0 nM
[3] = target: Myotonin-protein kinase (Homo sapiens) (UniProt Q09013); settings: Compound concentration 1000.0 nM
[4] = target: Cyclin-dependent kinase 8 (Homo sapiens) (UniProt P49336); settings: Compound concentration 1000.0 nM
[5] = target: Serine/threonine-protein kinase 38-like (Homo sapiens) (UniProt Q9Y2H1); settings: Compound concentration 1000.0 nM
[6] = target: Serine/threonine-protein kinase MARK2 (Homo sapiens) (UniProt Q7KZI7); settings: Compound concentration 1000.0 nM
Sequence of Serine/threonine-protein kinase MARK2 (Homo sapiens) (Q7KZI7 whole entry): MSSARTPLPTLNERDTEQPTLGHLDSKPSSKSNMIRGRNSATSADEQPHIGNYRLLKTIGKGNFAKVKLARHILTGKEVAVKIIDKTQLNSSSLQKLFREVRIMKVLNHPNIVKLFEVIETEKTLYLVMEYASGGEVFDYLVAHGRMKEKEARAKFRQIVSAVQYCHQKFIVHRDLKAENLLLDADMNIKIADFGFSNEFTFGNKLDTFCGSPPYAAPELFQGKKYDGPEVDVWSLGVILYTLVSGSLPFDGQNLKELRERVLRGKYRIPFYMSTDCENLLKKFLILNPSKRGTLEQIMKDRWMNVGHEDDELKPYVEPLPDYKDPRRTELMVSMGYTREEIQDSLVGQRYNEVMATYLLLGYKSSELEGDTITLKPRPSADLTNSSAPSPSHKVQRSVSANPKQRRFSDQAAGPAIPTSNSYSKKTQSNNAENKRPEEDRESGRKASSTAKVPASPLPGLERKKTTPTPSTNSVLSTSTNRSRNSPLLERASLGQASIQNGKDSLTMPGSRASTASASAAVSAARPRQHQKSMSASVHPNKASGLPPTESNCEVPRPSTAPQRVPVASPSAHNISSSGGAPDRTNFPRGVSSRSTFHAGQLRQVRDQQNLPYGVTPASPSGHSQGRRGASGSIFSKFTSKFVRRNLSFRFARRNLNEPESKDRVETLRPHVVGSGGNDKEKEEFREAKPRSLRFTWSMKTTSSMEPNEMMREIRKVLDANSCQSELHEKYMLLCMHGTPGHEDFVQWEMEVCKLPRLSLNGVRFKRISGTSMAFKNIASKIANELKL

[7] = target: Mitogen-activated protein kinase kinase kinase 5 (Homo sapiens) (UniProt Q99683); settings: Compound concentration 1000.0 nM
Sequence of Mitogen-activated protein kinase kinase kinase 5 (Homo sapiens) (Q99683 whole entry): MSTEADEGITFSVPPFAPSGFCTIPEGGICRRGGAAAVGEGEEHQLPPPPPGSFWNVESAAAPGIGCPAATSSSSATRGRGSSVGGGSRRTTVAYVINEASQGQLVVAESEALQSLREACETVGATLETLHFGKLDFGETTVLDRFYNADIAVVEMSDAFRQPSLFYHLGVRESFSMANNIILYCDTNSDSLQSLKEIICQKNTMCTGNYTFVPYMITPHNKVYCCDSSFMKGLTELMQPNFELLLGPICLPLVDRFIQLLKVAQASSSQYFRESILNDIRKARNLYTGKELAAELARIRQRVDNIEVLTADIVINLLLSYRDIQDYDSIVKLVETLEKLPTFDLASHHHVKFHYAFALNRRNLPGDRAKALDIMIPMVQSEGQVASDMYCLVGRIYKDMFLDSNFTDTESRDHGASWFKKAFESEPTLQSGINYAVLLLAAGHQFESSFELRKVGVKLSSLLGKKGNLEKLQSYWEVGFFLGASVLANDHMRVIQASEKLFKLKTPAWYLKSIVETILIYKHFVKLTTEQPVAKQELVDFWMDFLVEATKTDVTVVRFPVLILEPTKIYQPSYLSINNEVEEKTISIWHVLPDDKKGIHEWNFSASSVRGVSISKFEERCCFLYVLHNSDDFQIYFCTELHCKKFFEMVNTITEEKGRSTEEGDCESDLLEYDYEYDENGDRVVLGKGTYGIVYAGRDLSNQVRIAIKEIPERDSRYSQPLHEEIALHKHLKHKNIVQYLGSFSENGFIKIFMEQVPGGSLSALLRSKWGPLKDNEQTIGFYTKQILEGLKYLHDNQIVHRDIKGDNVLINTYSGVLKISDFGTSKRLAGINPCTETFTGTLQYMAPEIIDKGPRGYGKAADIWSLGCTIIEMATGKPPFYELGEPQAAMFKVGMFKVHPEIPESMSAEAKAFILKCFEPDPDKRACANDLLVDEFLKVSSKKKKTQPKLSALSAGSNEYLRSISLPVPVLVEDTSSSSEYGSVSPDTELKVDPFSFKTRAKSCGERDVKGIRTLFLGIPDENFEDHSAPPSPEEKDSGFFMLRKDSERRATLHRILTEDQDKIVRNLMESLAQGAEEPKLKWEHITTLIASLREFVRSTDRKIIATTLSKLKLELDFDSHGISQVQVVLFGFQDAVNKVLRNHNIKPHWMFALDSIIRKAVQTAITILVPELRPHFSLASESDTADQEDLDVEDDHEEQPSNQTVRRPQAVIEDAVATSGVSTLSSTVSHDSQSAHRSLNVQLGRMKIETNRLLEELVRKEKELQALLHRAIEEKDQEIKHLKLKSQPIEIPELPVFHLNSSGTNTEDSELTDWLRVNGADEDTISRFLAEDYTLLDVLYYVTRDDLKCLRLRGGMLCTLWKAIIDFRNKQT

[8] = tested on: ALK tyrosine kinase receptor (Homo sapiens), Q9UM73 [C1156Y]; settings: Compound concentration 1000.0 nM
[9] = tested on: Epidermal growth factor receptor (Homo sapiens), P00533 [L858R]; settings: Compound concentration 1000.0 nM
[10] = target: Proto-oncogene tyrosine-protein kinase Src (Homo sapiens) (UniProt P12931); settings: Compound concentration 1000.0 nM
[11] = target: Mitogen-activated protein kinase kinase kinase 14 (Homo sapiens) (UniProt Q99558); settings: Compound concentration 1000.0 nM
[12] = target: Discoidin domain-containing receptor 2 (Homo sapiens) (UniProt Q16832); settings: Compound concentration 1000.0 nM
[13] = target: Mitogen-activated protein kinase 4 (Homo sapiens) (UniProt P31152); settings: Compound concentration 1000.0 nM
[14] = tested on: Mast/stem cell growth factor receptor Kit (Homo sapiens), P10721 [V559D,V654A]; settings: Compound concentration 1000.0 nM
[15] = target: Sigma intracellular receptor 2 (Homo sapiens, UniProt Q5BJF2); assay: GPCRScan assay: inhibition of Sigma 2; design: radioligand conc. used [nm] 5.0, parental cells HEKT
[16] = tested on: Fibroblast growth factor receptor 3 (Homo sapiens), P22607 [G697C]; settings: Compound concentration 1000.0 nM
[17] = tested on: Mast/stem cell growth factor receptor Kit (Homo sapiens), P10721 [D816H]; settings: Compound concentration 1000.0 nM
[18] = tested on: Proto-oncogene tyrosine-protein kinase receptor Ret (Homo sapiens), P07949 [V804L]; settings: Compound concentration 1000.0 nM
[19] = target: Serine/threonine-protein kinase LATS2 (Homo sapiens) (UniProt Q9NRM7); settings: Compound concentration 1000.0 nM
[20] = target: Mitogen-activated protein kinase 6 (Homo sapiens) (UniProt Q16659); settings: Compound concentration 1000.0 nM
[21] = target: Calcium/calmodulin-dependent protein kinase type 1 (Homo sapiens) (UniProt Q14012); settings: Compound concentration 1000.0 nM
[22] = target: Mitogen-activated protein kinase kinase kinase 3 (Homo sapiens) (UniProt Q99759); settings: Compound concentration 1000.0 nM
[23] = target: Cyclin-dependent kinase 4 (Homo sapiens) (UniProt P11802); settings: Compound concentration 1000.0 nM
[24] = target: Serine/threonine-protein kinase PAK 2 (Homo sapiens) (UniProt Q13177); settings: Compound concentration 1000.0 nM
[25] = target: Tyrosine-protein kinase ABL1 (Homo sapiens) (UniProt P00519); settings: Compound concentration 1000.0 nM
[26] = target: Cyclin-dependent kinase 15 (Homo sapiens) (UniProt Q96Q40); settings: Compound concentration 1000.0 nM
[27] = target: Interleukin-1 receptor-associated kinase 1 (Homo sapiens) (UniProt P51617); settings: Compound concentration 1000.0 nM
[28] = tested on: ALK tyrosine kinase receptor (Homo sapiens), Q9UM73 [L1196M]; settings: Compound concentration 1000.0 nM
[29] = target: Mitogen-activated protein kinase kinase kinase kinase 1 (Homo sapiens) (UniProt Q92918); settings: Compound concentration 1000.0 nM
Sequence of Mitogen-activated protein kinase kinase kinase kinase 1 (Homo sapiens) (Q92918 whole entry, looked up): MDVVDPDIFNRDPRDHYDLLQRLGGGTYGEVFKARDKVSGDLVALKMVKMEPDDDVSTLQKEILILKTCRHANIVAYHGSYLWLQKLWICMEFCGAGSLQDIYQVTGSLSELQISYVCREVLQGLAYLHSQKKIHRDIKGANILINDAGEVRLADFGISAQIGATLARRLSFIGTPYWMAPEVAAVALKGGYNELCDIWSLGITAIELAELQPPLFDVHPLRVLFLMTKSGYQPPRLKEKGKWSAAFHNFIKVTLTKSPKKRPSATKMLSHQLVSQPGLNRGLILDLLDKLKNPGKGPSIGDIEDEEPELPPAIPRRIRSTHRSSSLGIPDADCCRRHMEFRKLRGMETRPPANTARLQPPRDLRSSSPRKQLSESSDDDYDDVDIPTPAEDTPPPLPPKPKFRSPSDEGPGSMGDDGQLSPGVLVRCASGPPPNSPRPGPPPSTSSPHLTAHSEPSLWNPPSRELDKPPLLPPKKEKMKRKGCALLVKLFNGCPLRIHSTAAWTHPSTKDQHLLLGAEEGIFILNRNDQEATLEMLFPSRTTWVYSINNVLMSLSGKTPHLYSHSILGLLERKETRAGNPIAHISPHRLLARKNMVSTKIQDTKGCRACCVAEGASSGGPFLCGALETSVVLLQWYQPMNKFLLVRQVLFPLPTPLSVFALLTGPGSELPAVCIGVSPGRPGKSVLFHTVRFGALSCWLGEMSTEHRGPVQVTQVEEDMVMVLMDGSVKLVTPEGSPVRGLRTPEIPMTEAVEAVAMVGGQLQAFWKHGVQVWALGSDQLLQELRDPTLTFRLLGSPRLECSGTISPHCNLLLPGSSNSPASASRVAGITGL

[30] = target: MAP kinase-interacting serine/threonine-protein kinase 1 (Homo sapiens) (UniProt Q9BUB5); settings: Compound concentration 1000.0 nM
[31] = target: RAC-beta serine/threonine-protein kinase (Homo sapiens) (UniProt P31751); settings: Compound concentration 1000.0 nM
[32] = target: Sodium-dependent serotonin transporter (Homo sapiens) (UniProt P31645); settings: Compound concentration 10.0 uM
Sequence of Sodium-dependent serotonin transporter (Homo sapiens) (P31645 whole entry, looked up): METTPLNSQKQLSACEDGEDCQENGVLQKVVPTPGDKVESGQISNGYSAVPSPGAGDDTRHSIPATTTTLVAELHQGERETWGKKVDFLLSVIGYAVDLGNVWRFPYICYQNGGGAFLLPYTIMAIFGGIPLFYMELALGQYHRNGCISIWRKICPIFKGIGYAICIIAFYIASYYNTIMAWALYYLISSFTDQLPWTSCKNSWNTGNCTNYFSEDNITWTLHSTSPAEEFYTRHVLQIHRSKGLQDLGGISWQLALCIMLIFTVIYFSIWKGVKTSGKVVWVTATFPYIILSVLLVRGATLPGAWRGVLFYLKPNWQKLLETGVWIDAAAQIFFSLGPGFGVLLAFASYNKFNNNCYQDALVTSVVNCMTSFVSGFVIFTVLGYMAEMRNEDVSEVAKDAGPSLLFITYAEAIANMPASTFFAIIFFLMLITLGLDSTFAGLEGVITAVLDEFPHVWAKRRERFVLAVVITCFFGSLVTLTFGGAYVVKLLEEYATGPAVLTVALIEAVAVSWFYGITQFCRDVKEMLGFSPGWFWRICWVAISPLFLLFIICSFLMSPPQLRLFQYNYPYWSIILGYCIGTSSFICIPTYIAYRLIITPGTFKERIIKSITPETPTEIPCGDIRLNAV

[33] = target: Vascular endothelial growth factor receptor 2 (Homo sapiens) (UniProt P35968); settings: Compound concentration 1000.0 nM
[34] = target: Activin receptor type-2B (Homo sapiens) (UniProt Q13705); settings: Compound concentration 1000.0 nM
[35] = target: Serine/threonine-protein kinase 35 (Homo sapiens) (UniProt Q8TDR2); settings: Compound concentration 1000.0 nM
[36] = target: Serine/threonine-protein kinase MRCK gamma (Homo sapiens) (UniProt Q6DT37); settings: Compound concentration 1000.0 nM
[37] = target: Mitogen-activated protein kinase kinase kinase 11 (Homo sapiens) (UniProt Q16584); settings: Compound concentration 1000.0 nM
[38] = target: Tyrosine-protein kinase TXK (Homo sapiens) (UniProt P42681); settings: Compound concentration 1000.0 nM
Sequence of Tyrosine-protein kinase TXK (Homo sapiens) (P42681 whole entry): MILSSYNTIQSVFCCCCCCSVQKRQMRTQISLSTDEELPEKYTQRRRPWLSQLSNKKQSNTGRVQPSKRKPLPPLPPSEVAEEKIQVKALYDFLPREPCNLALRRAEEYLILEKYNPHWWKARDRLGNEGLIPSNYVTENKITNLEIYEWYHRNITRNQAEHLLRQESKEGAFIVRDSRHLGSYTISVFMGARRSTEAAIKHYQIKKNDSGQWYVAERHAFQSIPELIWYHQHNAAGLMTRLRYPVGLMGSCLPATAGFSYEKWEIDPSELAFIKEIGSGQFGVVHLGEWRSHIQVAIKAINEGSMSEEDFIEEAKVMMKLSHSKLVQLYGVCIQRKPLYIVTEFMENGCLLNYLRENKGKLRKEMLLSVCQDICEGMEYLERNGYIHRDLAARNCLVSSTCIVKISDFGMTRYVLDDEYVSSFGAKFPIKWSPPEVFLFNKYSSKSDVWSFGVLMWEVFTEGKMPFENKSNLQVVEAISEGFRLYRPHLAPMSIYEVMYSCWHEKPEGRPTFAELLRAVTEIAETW

[39] = target: Fibroblast growth factor receptor 1 (Homo sapiens) (UniProt P11362); settings: Compound concentration 1000.0 nM
Sequence of Fibroblast growth factor receptor 1 (Homo sapiens) (P11362 22-822 limits assumed): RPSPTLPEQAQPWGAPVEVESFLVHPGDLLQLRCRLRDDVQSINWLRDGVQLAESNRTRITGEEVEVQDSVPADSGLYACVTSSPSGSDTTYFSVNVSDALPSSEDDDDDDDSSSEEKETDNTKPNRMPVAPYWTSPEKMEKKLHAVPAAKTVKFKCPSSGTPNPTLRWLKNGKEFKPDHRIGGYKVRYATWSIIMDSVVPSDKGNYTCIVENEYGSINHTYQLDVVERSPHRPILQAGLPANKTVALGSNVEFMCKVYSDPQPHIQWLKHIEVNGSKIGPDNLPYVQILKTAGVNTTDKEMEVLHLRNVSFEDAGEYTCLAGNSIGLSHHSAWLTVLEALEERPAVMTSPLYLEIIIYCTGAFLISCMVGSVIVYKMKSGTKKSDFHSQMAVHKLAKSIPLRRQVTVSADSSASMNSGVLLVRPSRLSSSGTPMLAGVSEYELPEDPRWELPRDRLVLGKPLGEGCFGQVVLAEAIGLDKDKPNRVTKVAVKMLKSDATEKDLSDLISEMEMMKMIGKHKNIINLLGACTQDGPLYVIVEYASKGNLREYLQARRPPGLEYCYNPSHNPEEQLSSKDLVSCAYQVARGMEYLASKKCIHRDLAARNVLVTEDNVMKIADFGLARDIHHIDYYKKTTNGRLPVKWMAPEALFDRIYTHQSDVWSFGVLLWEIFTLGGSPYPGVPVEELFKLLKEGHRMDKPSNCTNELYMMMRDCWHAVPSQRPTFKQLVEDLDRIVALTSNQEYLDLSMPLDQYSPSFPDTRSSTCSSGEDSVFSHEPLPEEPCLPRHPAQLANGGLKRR

[40] = target: Protein-tyrosine kinase 2-beta (Homo sapiens) (UniProt Q14289); settings: Compound concentration 1000.0 nM
[41] = target: Serine/threonine-protein kinase DCLK2 (Homo sapiens) (UniProt Q8N568); settings: Compound concentration 1000.0 nM
[42] = target: Dual specificity mitogen-activated protein kinase kinase 4 (Homo sapiens) (UniProt P45985); settings: Compound concentration 1000.0 nM
[43] = target: Mu-type opioid receptor (Homo sapiens) (UniProt P35372); settings: Compound concentration 10.0 uM
[44] = target: Cyclin-dependent kinase-like 3 (Homo sapiens) (UniProt Q8IVW4); settings: Compound concentration 1000.0 nM
[45] = target: Receptor-interacting serine/threonine-protein kinase 2 (Homo sapiens) (UniProt O43353); settings: Compound concentration 1000.0 nM

SMILES: O=C(Nc1cccnn1)N1CC(C/C=C/c2cncc(Oc3ccc(C(F)(F)F)cn3)n2)C1
- residual activity [1]: 75%
- residual activity [2]: 87%
- residual activity [3]: 100%
- residual activity [4]: 100%
- residual activity [5]: 100%
- residual activity [6]: 80%
- residual activity [7]: 98%
- residual activity [8]: 81%
- residual activity [9]: 97%
- residual activity [10]: 100%
- residual activity [11]: 77%
- residual activity [12]: 80%
- residual activity [13]: 100%
- residual activity [14]: 100%
- Ki [15]: 8.41 µM
- residual activity [16]: 100%
- residual activity [17]: 74%
- residual activity [18]: 93%
- residual activity [19]: 100%
- residual activity [20]: 100%
- residual activity [21]: 100%
- residual activity [22]: 79%
- residual activity [23]: 86%
- residual activity [24]: 95%
- residual activity [25]: 82%
- residual activity [26]: 100%
- residual activity [27]: 66%
- residual activity [28]: 82%
- residual activity [29]: 98%
- residual activity [30]: 67%
- residual activity [31]: 100%
- inhibition [32]: 32.7%
- residual activity [33]: 64%
- residual activity [34]: 98%
- residual activity [35]: 94%
- residual activity [36]: 100%
- residual activity [37]: 100%
- residual activity [38]: 100%
- residual activity [39]: 100%
- residual activity [40]: 100%
- residual activity [41]: 100%
- residual activity [42]: 74%
- inhibition [43]: 1.18%
- residual activity [44]: 95%
- residual activity [45]: 93%

SMILES: O=C(Nc1cccnn1)N1CCC(=Cc2cccc(Oc3ccc(C(F)(F)F)cn3)c2)CC1
- residual activity [1]: 100%
- residual activity [2]: 95%
- residual activity [3]: 100%
- residual activity [4]: 100%
- residual activity [5]: 84%
- residual activity [6]: 100%
- residual activity [7]: 100%
- residual activity [8]: 100%
- residual activity [9]: 100%
- residual activity [10]: 88%
- residual activity [11]: 100%
- residual activity [12]: 100%
- residual activity [13]: 95%
- residual activity [14]: 100%
- Ki [15]: 0.437 µM
- residual activity [16]: 100%
- residual activity [17]: 100%
- residual activity [18]: 86%
- residual activity [19]: 84%
- residual activity [20]: 90%
- residual activity [21]: 100%
- residual activity [22]: 100%
- residual activity [23]: 100%
- residual activity [24]: 83%
- residual activity [25]: 93%
- residual activity [26]: 100%
- residual activity [27]: 100%
- residual activity [28]: 100%
- residual activity [29]: 80%
- residual activity [30]: 100%
- residual activity [31]: 81%
- inhibition [32]: 20.2%
- residual activity [33]: 88%
- residual activity [34]: 98%
- residual activity [35]: 100%
- residual activity [36]: 84%
- residual activity [37]: 74%
- residual activity [38]: 100%
- residual activity [39]: 100%
- residual activity [40]: 97%
- residual activity [41]: 81%
- residual activity [42]: 100%
- inhibition [43]: 17.5%
- residual activity [44]: 81%
- residual activity [45]: 94%
